Here are results for 26 compounds from patent US20250066383A1, “PDE 7 MODULATOR COMPOUNDS” (Omeros Corporation, priority 2023, published 2025).

Each structure is given as a SMILES string. pIC50: −log10 of the molar value.

One experiment addresses PDE7A (Homo sapiens (Human), UniProt Q13946). In words: PDE7A assay: inhibition of PDE7A hydrolysis of [3H]cAMP to [3H]AMP (scintillation proximity, yttrium silicate beads). To be noted: 16 nM [3H]cAMP, 30° C., 20 minutes; read-out: PDE 7A IC50. In kind it is biochemical. As for the experimental part:
(§1) PDE7A and PDE7B Assay. Compounds were tested for their activity by measuring the inhibition of PDE7A or PDE7B hydrolysis of [3H]cAMP to [3H]AMP. Generally, eight dilutions of compound were assayed in 50 mM Tris-HCl pH 7.5, 8.3 mM MgCl2, 0.5 mg/mL BSA, 1.7 mM EGTA, 16 nM [3H]cAMP, and 1% DMSO. PDE7A or PDE7B (typically 1-5 ng/mL) (BPS BioSciences, CA) is added to initiate the reaction. The reaction was incubated at 30° C. for 20 minutes. PDE7A and PDE7B hydrolysis was terminated by the addition of yttrium silicate beads (GE Healthcare, RPNQ0150) and counted on a Wallac Microbeta scintillation counter, 1-2 hours following the addition of the beads. Data was analyzed using XLfit […] from which ICso values were obtained.
In general terms: SPA uses beads or plates that emit light when radiolabelled molecules are held near them.

Another experiment addresses PDE7B (Homo sapiens (Human), UniProt Q9NP56). Description: PDE7B assay: inhibition of PDE7B hydrolysis of [3H]cAMP to [3H]AMP (scintillation proximity, yttrium silicate beads). In kind it is biochemical. To be noted: 16 nM [3H]cAMP, 30° C., 20 minutes; read-out: PDE 7B IC50. As for the experimental part:
as §1

By pIC50 is commonly meant the IC50 on a negative log10 scale, so that one unit is a factor of ten.

Chain of PDE7A (Q13946 whole entry): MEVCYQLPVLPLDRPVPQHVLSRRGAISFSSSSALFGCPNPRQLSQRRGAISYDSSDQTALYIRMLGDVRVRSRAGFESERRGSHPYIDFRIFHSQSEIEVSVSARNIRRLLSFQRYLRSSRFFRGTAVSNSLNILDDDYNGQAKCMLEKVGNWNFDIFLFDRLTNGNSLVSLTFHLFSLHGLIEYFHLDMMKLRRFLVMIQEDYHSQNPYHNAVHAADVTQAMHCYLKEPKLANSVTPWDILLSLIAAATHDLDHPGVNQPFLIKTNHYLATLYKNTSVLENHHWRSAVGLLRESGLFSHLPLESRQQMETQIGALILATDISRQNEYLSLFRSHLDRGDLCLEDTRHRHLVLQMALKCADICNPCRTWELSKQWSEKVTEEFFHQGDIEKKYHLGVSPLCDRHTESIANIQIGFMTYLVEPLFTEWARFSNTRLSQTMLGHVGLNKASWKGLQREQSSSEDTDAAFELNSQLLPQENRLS
Chain of PDE7B (Q9NP56 whole entry): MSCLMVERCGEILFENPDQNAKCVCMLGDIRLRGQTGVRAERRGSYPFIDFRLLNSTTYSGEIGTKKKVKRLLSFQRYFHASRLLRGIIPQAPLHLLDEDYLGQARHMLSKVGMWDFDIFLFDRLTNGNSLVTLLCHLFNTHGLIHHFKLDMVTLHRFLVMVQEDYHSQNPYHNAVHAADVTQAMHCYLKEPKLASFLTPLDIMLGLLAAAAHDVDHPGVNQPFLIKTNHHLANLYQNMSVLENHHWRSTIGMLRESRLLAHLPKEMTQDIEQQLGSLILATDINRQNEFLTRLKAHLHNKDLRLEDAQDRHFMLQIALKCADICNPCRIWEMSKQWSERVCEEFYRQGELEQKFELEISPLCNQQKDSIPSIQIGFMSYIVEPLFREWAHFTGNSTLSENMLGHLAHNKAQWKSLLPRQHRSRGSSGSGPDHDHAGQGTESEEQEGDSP

For `Cc1nn(C2CCC(F)(F)CC2)c2sc(C(=O)N[C@H]3CC[C@H](N4CCN(CC(F)F)CC4)CC3)cc12` [II-11, 1-(4,4-difluorocyclo-hexyl)-N-((1r,4r)-4-(4-(2,2-difluoroeth-yl)piperazin-1-yl)-cyclohexyl)-3-meth-yl-1H-thieno[2,3-c] pyrazole-5-carbox-amide], the pIC50 at PDE7A and on PDE7B was 7.52 to 8.00 each time.

Turning to `Cc1nn(CC(C)C)c2sc(C(=O)N[C@H]3CC[C@H](N4CCN(C(=O)N(C)C)CC4)CC3)cc12` [II-19, N-((1r,4r)-4-(4-(dimethylcarbamo-yl)piperazin-1-yl)-cyclohexyl)-1-iso-butyl-3-methyl-1H-thieno[2,3-c]pyrazole-5-carboxamide], the figures for the pIC50 at PDE7A and on PDE7B were 7.52 to 8.00 and 7.00 to 7.52, respectively.

As to `Cc1nn(CC(C)C)c2sc(C(=O)N[C@H]3CC[C@H](N4CCN(CC(F)F)CC4)CC3)cc12` [II-8, N-((1r,4r)-4-(4-(2,2-difluoroethyl)piper-azin-1-yl)cyclohexyl)-1-isobutyl-3-methyl-1H-thieno[2,3-c]pyr-azole-5-carboxamide], the pIC50 on PDE7A and on PDE7B was 7.00 to 7.52 each time.

Regarding `Cc1nn(CC(C)(C)C)c2sc(C(=O)N[C@H]3CC[C@H](N4CCC(F)(F)C4)CC3)cc12` [II-27, N-((1r,4r)-4-(3,3-difluoropyrrolidin-1-yl)cyclohexyl)-3-methyl-1-neopentyl-1H-thieno[2,3-c]pyr-azole-5-carboxamide], the pIC50 at PDE7A and at PDE7B was over 8.00 throughout.

For `Cc1nn(CC(C)C)c2sc(C(=O)N[C@H]3CC[C@H](N4CC(OC(F)F)C4)CC3)cc12` [II-44, N-((1r,4r)-4-(3-(difluoromethoxy)-azetidin-1-yl)cyclo-hexyl)-1-isobutyl-3-methyl-1H-thieno [2,3-c]pyrazole-5-carboxamide], the pIC50 was 7.00 to 7.52 at PDE7A and 6.30 to 7.00 on PDE7B.

Regarding `Cc1nn(CC(C)(C)C)c2sc(C(=O)Nc3ccc(N4CCOCC4)nc3)cc12` [II-35, 3-methyl-N-(6-morpholinopyridin-3-yl)-1-neopentyl-1H-thieno[2,3-c]pyr-azole-5-carboxamide], the pIC50 at PDE7A and on PDE7B was 7.52 to 8.00 in each case.

With `Cc1nn(C2CCC(F)(F)CC2)c2sc(C(=O)N[C@H]3C[C@H](N4CCN(C5CC5)CC4)C3)cc12` [II-33, N-((1r,3r)-3-(4-cyclo-propylpiperazin-1-yl)cyclobutyl)-1-(4,4-difluorocyclohexyl)-3-methyl-1H-thieno [2,3-c]pyrazole-5-carboxamide], the pIC50 on PDE7A and on PDE7B was 7.52 to 8.00 in each case.

Regarding `CC(=O)N1CCN([C@H]2CC[C@H](NC(=O)c3cc4c(C)nn(-c5ccccc5Cl)c4s3)CC2)CC1` [Compound I-4, N-((1r,4r)-4-(4-acetyl-piperazin-1-yl)cyclo-hexyl)-1-(2-chloro-phenyl)-3-methyl-1H-thieno[2,3-c]pyrazole-5-carboxamide], the pIC50 on PDE7A and at PDE7B was over 8.00 each time.

Take `Cc1nn(CC(C)(C)C)c2sc(C(=O)N[C@H]3C[C@H](N4CCOCC4)C3)cc12` [II-25, 3-methyl-N-((1r,3r)-3-morpholinocyclo-butyl)-1-neopentyl-1H-thieno[2,3-c]pyr-azole-5-carboxamide]: the pIC50 on PDE7A was 7.52 to 8.00; on PDE7B, 7.00 to 7.52.

As to `Cc1nn(C2CCC(F)(F)CC2)c2sc(C(=O)N[C@H]3CC[C@H](N4CC(F)(F)C4)CC3)cc12` [II-17, N-((1r,4r)-4-(3,3-difluoroazetidin-1-yl)cyclohexyl)-1-(4,4-difluorocyclohexyl)-3-methyl-1H-thieno [2,3-c]pyrazole-5-carboxamide], the pIC50 on PDE7A and on PDE7B was over 8.00 each time.

As for `Cc1nn(-c2ccccc2Cl)c2sc(C(=O)N[C@H]3CC[C@H](N4CC(OC(F)F)C4)CC3)cc12` [Compound I-7, 1-(2-chlorophenyl)-N-((1r,4r)-4-(3-(difluoro-methoxy)azetidin-1-yl)-cyclohexyl)-3-methyl-1H-thieno[2,3-c]pyr-azole-5-carboxamide], the negative logarithm of the IC50 (pIC50) on PDE7A and on PDE7B was 7.52 to 8.00 in each case.

`Cc1nn(CC(C)C)c2sc(C(=O)N[C@H]3CC[C@H](N4CC(F)(F)C4)CC3)cc12` [II-4, N-((1r,4r)-4-(3,3-difluoroazetidin-1-yl)-cyclohexyl)-1-isobut-yl-3-methyl-1H-thieno [2,3-c]pyrazole-5-carboxamide]: the figures for the pIC50 on PDE7A and at PDE7B were 7.52 to 8.00 and 7.00 to 7.52, respectively.

Consider `Cc1nn(-c2ccccc2)c2sc(C(=O)N[C@H]3CC[C@H](N4CCOCC4)CC3)cc12` [Compound I-8, 3-methyl-N-((1r,4r)-4-morpholinocyclohex-yl)-1-phenyl-1H-thieno [2,3-c]pyrazole-5-carboxamide], for which the pIC50 at PDE7A and at PDE7B was 6.30 to 7.00 each time.

Turning to `Cc1nn(CC(C)(C)C)c2sc(C(=O)N[C@H]3CC[C@H](N4CC(OC(F)F)C4)CC3)cc12` [II-42, N-((1r,4r)-4-(3-(difluoromethoxy)-azetidin-1-yl)cyclo-hexyl)-3-methyl-1-neopentyl-1H-thieno [2,3-c]pyrazole-5-carboxamide], the pIC50 at PDE7A and at PDE7B was over 8.00 each time.

As to `Cc1nn(CC(C)C)c2sc(C(=O)N[C@H]3CC[C@H](N4CCN(CC(F)(F)F)CC4)CC3)cc12` [II-7, 1-isobutyl-3-methyl-N-((1r,4r)-4-(4-(2,2,2-trifluoroethyl)piper-azin-1-yl)cyclohexyl)-1H-thieno[2,3-c]pyr-azole-5-carboxamide], the pIC50 at PDE7A and at PDE7B was 7.00 to 7.52 in each case.

As for `CC(=O)N1CCN([C@H]2C[C@H](NC(=O)c3cc4c(C)nn(C5CCC(F)(F)CC5)c4s3)C2)CC1` [II-29, N-((1r,3r)-3-(4-acet-ylpiperazin-1-yl)-cyclobutyl)-1-(4,4-difluorocyclohexyl)-3-methyl-1H-thieno [2,3-c]pyrazole-5-carboxamide], the pIC50 on PDE7A and on PDE7B was 7.52 to 8.00 each time.

Regarding `Cc1nn(-c2ccccn2)c2sc(C(=O)N[C@H]3CC[C@H](N4CCOCC4)CC3)cc12` [Compound I-1, 3-methyl-N-((1r,4r)-4-morpholinocyclohex-yl)-1-(pyridin-2-yl)-1H-thieno[2,3-c]pyr-azole-5-carboxamide], the pIC50 at PDE7A and at PDE7B was 6.30 to 7.00 throughout.

As to `CC(=S)N1CCN([C@H]2CC[C@H](NC(=O)c3cc4c(C)nn(CC(C)C)c4s3)CC2)CC1` [II-23, N-((1r,4r)-4-(4-ethanethioylpiperazin-1-yl)cyclohexyl)-1-isobutyl-3-methyl-1H-thieno[2,3-c]pyrazole-5-carboxamide], the pIC50 was 7.52 to 8.00 at PDE7A and 7.00 to 7.52 at PDE7B.

Take `Cc1nn(C2CCC(F)(F)CC2)c2sc(C(=O)N[C@H]3C[C@@H](N4CCC(F)(F)C4)C3)cc12` [II-39, 1-(4,4-difluorocyclo-hexyl)-N-((1s,3s)-3-(3,3-difluoropyrrol-idin-1-yl)cyclobutyl)-3-methyl-1H-thieno [2,3-c]pyrazole-5-carboxamide]: the pIC50 on PDE7A and on PDE7B was 7.00 to 7.52 throughout.

Turning to `Cc1nn(CC(C)(C)C)c2sc(C(=O)N[C@H]3CC[C@H](N4CCOCC4)CC3)cc12` [II-32, 3-methyl-N-((1r,4r)-4-morpholinocyclo-hexyl)-1-neopentyl-1H-thieno[2,3-c]pyr-azole-5-carboxamide], the pIC50 at PDE7A and at PDE7B was over 8.00 in each case.

With `Cc1nn(CC(C)(C)C)c2sc(C(=O)N[C@H]3CC[C@H](N4CC(C#N)C4)CC3)cc12` [II-36, N-((1r,4r)-4-(3-cyanoazetidin-1-yl)-cyclohexyl)-3-meth-yl-1-neopentyl-1H-thieno[2,3-c]pyr-azole-5-carboxamide], the pIC50 on PDE7A and on PDE7B was over 8.00 each time.

As to `COC1CN([C@H]2CC[C@H](NC(=O)c3cc4c(C)nn(CC(C)(C)C)c4s3)CC2)C1` [II-45, N-((1r,4r)-4-(3-methoxyazetidin-1-yl)cyclohexyl)-3-methyl-1-neopentyl-1H-thieno[2,3-c]pyr-azole-5-carboxamide], the pIC50 on PDE7A was over 8.00; at PDE7B, 7.52 to 8.00.

For the compound `Cc1nn(CC2CCC2)c2sc(C(=O)N[C@H]3CC[C@H](N4CC(F)(F)C4)CC3)cc12` [II-22, 1-(cyclobutylmethyl)-N-((1r,4r)-4-(3,3-difluoroazetidin-1-yl)cyclohexyl)-3-methyl-1H-thieno [2,3-c]pyrazole-5-carboxamide], the pIC50 at PDE7A and on PDE7B was 7.00 to 7.52 in each case.

Consider `Cc1nn(CC(C)(C)C)c2sc(C(=O)Nc3ccc(N4CCOCC4)c(C#N)c3)cc12` [II-40, N-(3-cyano-4-mor-pholinophenyl)-3-methyl-1-neopentyl-1H-thieno[2,3-c]pyr-azole-5-carboxamide], for which the negative-log IC50 (pIC50) on PDE7A and at PDE7B was 6.30 to 7.00 each time.

Take `Cc1nn(C2CCC(F)(F)CC2)c2sc(C(=O)N[C@H]3CC[C@H](N4CCN(C5CC5)CC4)CC3)cc12` [II-15, N-((1r,4r)-4-(4-cyclo-propylpiperazin-1-yl)cyclohexyl)-1-(4,4-difluorocyclohexyl)-3-methyl-1H-thieno [2,3-c]pyrazole-5-carboxamide]: the pIC50 on PDE7A and at PDE7B was 7.52 to 8.00 in each case.

`CC(=O)N1CCN([C@H]2CC[C@H](NC(=O)c3cc4c(C)nn(CC(C)(C)C)c4s3)CC2)CC1` [II-37, N-((1r,4r)-4-(4-acet-ylpiperazin-1-yl)-cyclohexyl)-3-meth-yl-1-neopentyl-1H-thieno[2,3-c]pyr-azole-5-carboxamide]: the pIC50 on PDE7A and on PDE7B was over 8.00 throughout.
